From ChEMBL document CHEMBL1201862, “PubChem BioAssay data set” (2004)
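A five-concentration, 48-hour dose response in 96-well plates underlies each endpoint, interpolated linearly between surrounding concentrations. The concentration for 50% growth inhibition is given as GI50.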 Calls of active or inactive are those of the source. No stated cut-off is given here; in the data, active = GI50 up to about 1.1 µM and inactive = higher.

Tests used:
Experiment in all cases: inhibition of tumour cell growth, NCI panel, 48 h
[1] = system: HCT-116
[2] = system: Hs-578T
[3] = system: K562
[4] = system: MDA-MB-231
[5] = system: MDA-N
[6] = system: NCI-H460
[7] = system: NCI/ADR-RES
[8] = system: OVCAR-4
[9] = system: OVCAR-5
[10] = system: PC-3
[11] = system: RPMI-8226
[12] = system: SF-295
[13] = system: SF-539
[14] = system: SK-MEL-2
[15] = system: SK-MEL-5
[16] = system: SK-OV-3
[17] = system: SW-620
[18] = system: U-251
[19] = system: UO-31
[20] = system: SNB-75

SMILES | GI50 [1] | GI50 [2] | GI50 [3] | GI50 [4] | GI50 [5] | GI50 [6] | GI50 [7] | GI50 [8] | GI50 [9] | GI50 [10] | GI50 [11] | GI50 [12] | GI50 [13] | GI50 [14] | GI50 [15] | GI50 [16] | GI50 [17] | GI50 [18] | GI50 [19] | GI50 [20]
N#CCCN(CCC#N)c1ccc(/C=C2\N=C(c3ccccc3)N(c3ccccc3)C2=O)cc1 | 5.93 µM (inactive) | 19.3 µM (inactive) | 18.5 µM (inactive) | > 100 µM (inactive) | > 100 µM (inactive) | 2.1 µM (inactive) | > 100 µM (inactive) | > 100 µM (inactive) | > 100 µM (inactive) | 17 µM (inactive) | 8.36 µM (inactive) | > 100 µM (inactive) | 6.11 µM (inactive) | > 100 µM (inactive) | 4.38 µM (inactive) | > 100 µM (inactive) | > 100 µM (inactive) | > 100 µM (inactive) | > 100 µM (inactive) | 
CCCCOCCOCCOC1=C(Cl)C(=O)c2c(O)ccc(O)c2C1=O | 0.401 µM (active) | 2.4 µM (inactive) | 0.0419 µM (active) | 0.488 µM (active) | 0.728 µM (active) | 1.85 µM (inactive) | 1.97 µM (inactive) | 0.359 µM (active) | 2.52 µM (inactive) | 1.62 µM (inactive) | 0.212 µM (active) | 1.73 µM (inactive) | 1.51 µM (inactive) |  | 0.565 µM (active) | 4.25 µM (inactive) | 0.283 µM (active) | 1.67 µM (inactive) | 1.35 µM (inactive) | 0.382 µM (active)
CO/N=C(\C)c1cccc(Nc2c3ccccc3nc3occc23)c1 | 8.34 µM (inactive) | 17 µM (inactive) | 4.11 µM (inactive) | 9.79 µM (inactive) | 4.35 µM (inactive) | 5.81 µM (inactive) | 4.12 µM (inactive) | 4.75 µM (inactive) | 20.5 µM (inactive) | 16.8 µM (inactive) | 4.36 µM (inactive) | 5.46 µM (inactive) | 9.06 µM (inactive) | 3.56 µM (inactive) | 6.22 µM (inactive) | 14.4 µM (inactive) |  | 14.2 µM (inactive) | 12.8 µM (inactive) | 
CCOC(=O)CSc1nc(-c2ccc(OC)cc2)c(C#N)c(=O)[nH]1 | > 100 µM (inactive) | > 100 µM (inactive) | > 100 µM (inactive) | > 100 µM (inactive) |  | > 100 µM (inactive) | > 100 µM (inactive) | > 100 µM (inactive) | > 100 µM (inactive) | > 100 µM (inactive) | > 100 µM (inactive) | > 100 µM (inactive) | > 100 µM (inactive) | > 100 µM (inactive) | > 100 µM (inactive) | > 100 µM (inactive) | > 100 µM (inactive) | > 100 µM (inactive) | 51.9 µM (inactive) | > 100 µM (inactive)
[N-]=[N+]=Nc1ccccc1-c1ccccc1[N+](=O)[O-] | 43 µM (inactive) | 30.5 µM (inactive) | 31.3 µM (inactive) | 50.2 µM (inactive) | 30.9 µM (inactive) | 26.9 µM (inactive) | 29.9 µM (inactive) | 72.9 µM (inactive) | > 100 µM (inactive) | 37.8 µM (inactive) | 26 µM (inactive) | 73.3 µM (inactive) |  | 27.2 µM (inactive) |  | > 100 µM (inactive) | 48.5 µM (inactive) | 42.9 µM (inactive) | 72.8 µM (inactive) | 50 µM (inactive)
O=C(O)c1ccccc1/C=N\N(CCO)C1=NCCN1 | > 100 µM (inactive) | > 100 µM (inactive) | > 100 µM (inactive) | > 100 µM (inactive) | > 100 µM (inactive) | > 100 µM (inactive) |  | > 100 µM (inactive) | > 100 µM (inactive) | > 100 µM (inactive) | > 100 µM (inactive) | > 100 µM (inactive) | > 100 µM (inactive) | > 100 µM (inactive) | > 100 µM (inactive) | > 100 µM (inactive) | > 100 µM (inactive) | > 100 µM (inactive) | > 100 µM (inactive) | 93.1 µM (inactive)
O=c1ccn(C2OC(CN(O)CCC3C(O)C(CO)OC3n3ccc(=O)[nH]c3=O)C(O)C2O)c(=O)[nH]1 (stereo not given) | > 100 µM (inactive) | > 100 µM (inactive) | > 100 µM (inactive) | > 100 µM (inactive) | > 100 µM (inactive) | > 100 µM (inactive) | > 100 µM (inactive) | > 100 µM (inactive) | > 100 µM (inactive) | > 100 µM (inactive) | > 100 µM (inactive) | > 100 µM (inactive) |  | > 100 µM (inactive) |  | > 100 µM (inactive) |  | > 100 µM (inactive) | > 100 µM (inactive) | > 100 µM (inactive)
COc1c(O)c(OC)c2oc(-c3ccc(O)cc3)c(OC)c(=O)c2c1O | 46.3 µM (inactive) | 18.4 µM (inactive) | 55.6 µM (inactive) | 42.5 µM (inactive) | 79.4 µM (inactive) | 45.7 µM (inactive) | 61 µM (inactive) |  | > 100 µM (inactive) | 48.6 µM (inactive) | 56.9 µM (inactive) | > 100 µM (inactive) | 55.3 µM (inactive) | 42.5 µM (inactive) | 17.4 µM (inactive) | 17 µM (inactive) | 34.5 µM (inactive) | 23.9 µM (inactive) | 34.7 µM (inactive) | 
CCOC(=O)c1c(NC(=S)NCc2ccccc2)sc2c1CCN(C)C2 | 67.3 µM (inactive) | 64.4 µM (inactive) | 21.7 µM (inactive) | 47.8 µM (inactive) | > 100 µM (inactive) | 40.8 µM (inactive) | > 100 µM (inactive) |  | > 100 µM (inactive) | 35.4 µM (inactive) | 28.5 µM (inactive) | 57.3 µM (inactive) | 69.2 µM (inactive) | 39.5 µM (inactive) | 45.1 µM (inactive) |  |  |  | 64.4 µM (inactive) | 
O=[N+]([O-])C(C=C(n1nnc2ccccc21)n1nnc2ccccc21)=C(n1nnc2ccccc21)n1nnc2ccccc21 | 46.2 µM (inactive) | 58.5 µM (inactive) | 42.3 µM (inactive) | > 100 µM (inactive) | > 100 µM (inactive) | > 100 µM (inactive) | > 100 µM (inactive) |  | > 100 µM (inactive) | > 100 µM (inactive) | 44.6 µM (inactive) | > 100 µM (inactive) | > 100 µM (inactive) |  |  | > 100 µM (inactive) | > 100 µM (inactive) | > 100 µM (inactive) | 22.1 µM (inactive) | 
Cc1ccc(S(=O)(=O)NC(=O)Nc2ccc(C(=O)O)c(O)c2)cc1 | > 100 µM (inactive) | > 100 µM (inactive) | > 100 µM (inactive) | > 100 µM (inactive) |  | > 100 µM (inactive) | > 100 µM (inactive) | > 100 µM (inactive) | > 100 µM (inactive) | > 100 µM (inactive) | > 100 µM (inactive) | > 100 µM (inactive) | > 100 µM (inactive) | > 100 µM (inactive) | > 100 µM (inactive) | > 100 µM (inactive) | > 100 µM (inactive) | > 100 µM (inactive) | > 100 µM (inactive) | > 100 µM (inactive)
CCOC(=O)CNC1=NNS(=O)(=O)c2ccccc21 | > 100 µM (inactive) | > 100 µM (inactive) | > 100 µM (inactive) | > 100 µM (inactive) | > 100 µM (inactive) | 32.6 µM (inactive) | > 100 µM (inactive) | > 100 µM (inactive) | > 100 µM (inactive) | > 100 µM (inactive) | > 100 µM (inactive) | > 100 µM (inactive) | > 100 µM (inactive) |  | > 100 µM (inactive) | > 100 µM (inactive) | > 100 µM (inactive) | > 100 µM (inactive) | > 100 µM (inactive) | > 100 µM (inactive)
Nn1c(-c2ccccc2)nn(C(=O)c2ccccc2)c1=O | > 100 µM (inactive) | > 100 µM (inactive) | > 100 µM (inactive) | > 100 µM (inactive) | > 100 µM (inactive) | > 100 µM (inactive) | > 100 µM (inactive) | > 100 µM (inactive) | > 100 µM (inactive) | > 100 µM (inactive) | > 100 µM (inactive) | > 100 µM (inactive) | > 100 µM (inactive) |  | > 100 µM (inactive) |  | > 100 µM (inactive) | > 100 µM (inactive) | > 100 µM (inactive) | > 100 µM (inactive)
O=C1CSC(c2ccc([N+](=O)[O-])cc2)N1c1ccc(-n2c(-c3ccccc3)nc3ccccc3c2=O)cc1 (stereo not given) | 61.9 µM (inactive) | > 100 µM (inactive) | 86.9 µM (inactive) | 70.3 µM (inactive) | > 100 µM (inactive) | > 100 µM (inactive) | 60.7 µM (inactive) | 21.3 µM (inactive) | > 10 µM (inactive) | > 100 µM (inactive) | > 100 µM (inactive) | > 100 µM (inactive) | 42.9 µM (inactive) | > 100 µM (inactive) | 82.2 µM (inactive) | > 100 µM (inactive) | > 100 µM (inactive) | > 100 µM (inactive) | 2.56 µM (inactive) | 
Clc1cccc(-c2sc(-c3cccs3)cc2Cc2cccs2)c1 | > 10 µM (inactive) | > 10 µM (inactive) | > 10 µM (inactive) | 9.84 µM (inactive) | > 10 µM (inactive) | > 10 µM (inactive) | > 10 µM (inactive) | > 10 µM (inactive) |  | > 10 µM (inactive) | > 10 µM (inactive) | > 10 µM (inactive) | > 10 µM (inactive) |  | > 10 µM (inactive) | > 10 µM (inactive) | > 10 µM (inactive) |  | > 10 µM (inactive) | > 10 µM (inactive)
